According to patent US12419305B2, “Antimicrobial compositions” (Firmenich SA, priority 2018, dated 2025):
Read-outs that look alike come from different tables or passages of the source.

What was measured:
E. coli ATCC 10536 = assay: BCT test (bacterial contact time), 45 s, log reduction / effect fraction; CI by Compusyn; assay type: cell-based, Escherichia coli; conditions: Escherichia coli, ATCC10536, 45 s; for log reduction at […] strength: dose […] w/v
Method in brief: (§1)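 Combination index comes from dose and effect fraction of each blend and its single components, with values under 0.9 taken as synergistic and above 1.0 as antagonistic. Effect reflects log reduction in viable count after short contact of ~1×10^8 bacteria/mL with ethanolic test solutions.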

[1] = test system: Salmonella enterica ATCC 10708; assay: BCT test (bacterial contact time), 60 s, log reduction / effect fraction; CI by Compusyn; assay type: cell-based; conditions: Salmonella enterica, ATCC10708, 1 min
Method in brief: as §1

[2] = test system: Pseudomonas aeruginosa ATCC 15442; assay: as above; assay type: cell-based; conditions: Pseudomonas aeruginosa, ATCC15442, 1 min, BCT 60 s, in 25% EtOH
Method in brief: as §1

S. haemolyticus 114126 = assay: BCT test (bacterial contact time), 120 s, log reduction / effect fraction; CI by Compusyn; assay type: cell-based; conditions: Staphylococcus haemolyticus, 114126, 2 min
Method: S. haemolyticus: Suspensions of the S. haemolyticus 114126 strain, isolated from skin, were prepared as follows: Stock cultures (stored at −80° C.) were thawed and sub-cultured onto TSA-TW80 agar plate media, and incubated at 37° C. for 24 h to obtain single colonies. Single colonies of the primary cultures were streaked onto fresh TSA-TW80 plates and incubated at 37° C. for 24 h to prepare secondary cultures. Single colonies of secondary cultures were picked and used to inoculate 50 mL of BHI-TW80 broth. The inoculated broth was incubated at 37° C. at 180 rpm for 18 h. Aliquots (0.5 ml) of the 18 h culture were inoculated into 50 ml of fresh BHI-TW80 broth, and incubated at 37° C. at 180 rpm for approximately 3 hours. When the OD 600 nm value of the broth reached 1-2, cells were harvested by centrifugation at 5000 rpm for 10 min, and then resuspended in fresh BHI-TW80 broth at a concentration of 1-5×10^8 CFU/mL. This suspension was used as the bacterial suspension for the BCT test.
BCT Test: Test compositions at a range of concentrations (either combinations of more than one perfume ingredient, and comparative compositions comprising the single perfume ingredients) were prepared in ethanol. Five replicates of each test composition were added into 96-well microtiter plates (120 μl per well), with row B containing control compositions containing the ethanol solution alone. 120 μl of bacterial cell suspensions at a concentration of approximately 1×10^8 bacteria per mL (as prepared above) were added to each well of the microtiter plate. The bacterial suspensions were incubated with the test solutions for 45, 60, or 120 seconds. Following the incubation of the bacterial suspensions with the test solutions, serial dilutions of the bacterial suspensions were generated (three serial 1:10 dilutions, followed by 17 serial 1:2 dilutions), in multiwell microtiter plates.
Each plate was sealed and incubated at 37° C. under agitation (180 rpm). After incubation, the turbidity of the wells (OD600 nm) was determined using a Tecan microplate reader. Turbid wells were regarded as positive growth, due to the presence of viable cells. The total number of viable cells (log CFU) for each sample was calculated. And the log reduction for each test composition at the final concentration (dose) was calculated against the control sample of the ethanol solution.
Determination of Synergy via the Combination Index (CI): The CI was calculated using Compusyn software (ComboSyn, Inc., as created by Dr. Dorothy Chou in 2005), according to the manufacturer's instructions. The concentration of each test composition (combinations of more than one perfume ingredient, and comparative compositions comprising the single perfume ingredients used to generate the combination) and their corresponding effect fraction was entered, and the corresponding CI calculated.
When the calculated CI values were less than 0.9, the combination of perfume ingredients was regarded as having synergistic effect. When the calculated CI was between 1.0 a 0.9, the combination of perfume ingredients was regarded as having an additive effect. When the calculated CI was greater than 1.0, the combination of perfume ingredients was regarded as having an antagonistic effect.

S. aureus ATCC 6538 = assay: BCT test (bacterial contact time), 60 s, log reduction / effect fraction; CI by Compusyn; assay type: cell-based, Staphylococcus aureus; conditions: Staphylococcus aureus, ATCC6538, 1 min, in 25% EtOH
Method in brief: as §1

C/C=C/c1ccc(O)c(OC)c1 [Isoeugenol, 2-Methoxy-4-(prop-1-en-1-yl)phenol]
log reduction at 0.05 % strength (E. coli ATCC 10536; dose 0.05% w/v, contact 45 s, 20% EtOH): 0.1 | log reduction at 0.07 % strength (E. coli ATCC 10536; dose 0.07% w/v, contact 45 s, 20% EtOH): 0.8 | log reduction at 0.09 % strength (E. coli ATCC 10536; dose 0.09% w/v, contact 45 s, 20% EtOH): 2.9 | log reduction at 0.1 % strength (E. coli ATCC 10536; dose 0.1% w/v, contact 45 s, 20% EtOH, read-out: Log reduction): 4.9 | log reduction at 0.12 % strength (E. coli ATCC 10536; dose 0.12% w/v, contact 45 s, 20% EtOH, read-out: Log reduction): 7.4 | log reduction at 0.05 % strength ([1]; Dose 0.05 % w/v, BCT 60 s, in 25% EtOH, read-out: Log reduction): -0.1 | log reduction at 0.06 % strength ([1]; Dose 0.06 % w/v, BCT 60 s, in 25% EtOH): 0 | log reduction at 0.075 % strength ([1]; Dose 0.075 % w/v, BCT 60 s, in 25% EtOH): 4 | log reduction at 0.08 % strength ([1]; Dose 0.08 % w/v, BCT 60 s, in 25% EtOH): 4 | log reduction at 0.08 % strength ([1]; Dose 0.080 % w/v, BCT 60 s, in 25% EtOH): 0.8 | log reduction at 0.1 % strength ([1]; Dose 0.1 % w/v, BCT 60 s, in 25% EtOH, read-out: Log reduction): 2.6 | log reduction at 0.1 % strength ([1]; Dose 0.10 % w/v, BCT 60 s, in 25% EtOH, read-out: Log reduction): 6.9 | log reduction at 0.11 % strength ([1]; Dose 0.110 % w/v, BCT 60 s, in 25% EtOH): 7.5 | log reduction at 0.12 % strength ([1]; Dose 0.120 % w/v, BCT 60 s, in 25% EtOH, read-out: Log reduction): 7.2 | log reduction at 0.125 % strength ([2]; Dose 0.125 % w/v): 7.5 | log reduction at 0.15 % strength ([2]; Dose 0.15 % w/v): 7.5 | log reduction at 0.15 % strength (S. haemolyticus 114126; dose 0.15% w/v, contact 120 s, 25% EtOH): -0.3 | log reduction at 0.2 % strength (S. haemolyticus 114126; dose 0.2% w/v, contact 120 s, 25% EtOH): 0.5 | log reduction at 0.25 % strength (S. haemolyticus 114126; dose 0.25% w/v, contact 120 s, 25% EtOH, read-out: Log reduction): 2.2 | log reduction at 0.3 % strength (S. haemolyticus 114126; dose 0.3% w/v, contact 120 s, 25% EtOH, read-out: Log reduction): 3.7 | log reduction at 0.35 % strength (S. haemolyticus 114126; dose 0.35% w/v, contact 120 s, 25% EtOH): 5.6 | log reduction at 0.4 % strength (S. haemolyticus 114126; dose 0.4% w/v, contact 120 s, 25% EtOH, read-out: Log reduction): 7.2 | log reduction at 0.1 % strength (S. aureus ATCC 6538; dose 0.100 % w/v, 60 s): 1.1 | log reduction at 0.125 % strength (S. aureus ATCC 6538; dose 0.125 % w/v, 60 s): 3.7 | log reduction at 0.15 % strength (S. aureus ATCC 6538; dose 0.150 % w/v, 60 s, read-out: Log reduction): 5.6 | log reduction at 0.2 % strength (S. aureus ATCC 6538; dose 0.200 % w/v, 60 s, read-out: Log reduction): 7.5

CC(C=O)Cc1ccc2c(c1)OCO2 (centres unmarked) [Heliopropanal, 3-(1,3-Benzodioxol-5-yl)-2-methylpropanal]
log reduction at 0.1 % strength (E. coli ATCC 10536; dose 0.100 % w/v, 45 s, in 20% EtOH): 1 | log reduction at 0.1 % strength (E. coli ATCC 10536; dose 0.1% w/v, contact 45 s, 20% EtOH): 0.5 | log reduction at 0.12 % strength (E. coli ATCC 10536; dose 0.120 % w/v, 45 s, in 20% EtOH): 2.1 | log reduction at 0.12 % strength (E. coli ATCC 10536; dose 0.12% w/v, contact 45 s, 20% EtOH): 1.1 | log reduction at 0.14 % strength (E. coli ATCC 10536; dose 0.140 % w/v, 45 s, in 20% EtOH): 4.3 | log reduction at 0.14 % strength (E. coli ATCC 10536; dose 0.14% w/v, contact 45 s, 20% EtOH): 3.1 | log reduction at 0.16 % strength (E. coli ATCC 10536; dose 0.160 % w/v, 45 s, in 20% EtOH): 7.3 | log reduction at 0.16 % strength (E. coli ATCC 10536; dose 0.16% w/v, contact 45 s, 20% EtOH): 7 | log reduction at […] strength (E. coli ATCC 10536; 45 s, in 20% EtOH): 7.3 | log reduction at […] strength (E. coli ATCC 10536; contact 45 s, 20% EtOH): 7.4 | log reduction at 0.05 % strength [1]: 0 | log reduction at 0.1 % strength [1]: 0.8 | log reduction at 0.12 % strength [1]: 2.9 | log reduction at 0.13 % strength [1]: 3.9 | log reduction at 0.14 % strength [1]: 5.5 | log reduction at 0.175 % strength ([2]; Dose 0.175 % w/v): 4.8 | log reduction at 0.2 % strength ([2]; Dose 0.2 % w/v): 7.2 | log reduction at 0.25 % strength ([2]; Dose 0.25 % w/v): 7.4 | log reduction at 0.175 % strength (S. haemolyticus 114126): 0.1 | log reduction at 0.25 % strength (S. haemolyticus 114126): 0.3 | log reduction at 0.3 % strength (S. haemolyticus 114126): 1.5 | log reduction at 0.4 % strength (S. haemolyticus 114126): 3.2 | log reduction at 0.45 % strength (S. haemolyticus 114126): 5.2 | log reduction at 0.15 % strength (S. aureus ATCC 6538; Dose 0.15 % w/v, BCT 60 s): 0.4 | log reduction at 0.175 % strength (S. aureus ATCC 6538; Dose 0.175 % w/v, BCT 60 s): 0.4 | log reduction at 0.2 % strength (S. aureus ATCC 6538; Dose 0.200 % w/v, BCT 60 s): 1.3 | log reduction at 0.225 % strength (S. aureus ATCC 6538; Dose 0.225 % w/v, BCT 60 s): 3.5 | log reduction at 0.25 % strength (S. aureus ATCC 6538; Dose 0.25 % w/v, BCT 60 s): 7.3 | log reduction at 0.15 % strength (S. aureus ATCC 6538; dose 0.150 % w/v, 60 s): 0.4 | log reduction at 0.2 % strength (S. aureus ATCC 6538; dose 0.200 % w/v, 60 s): 1.2 | log reduction at 0.225 % strength (S. aureus ATCC 6538; dose 0.225 % w/v, 60 s): 4.2 | log reduction at 0.25 % strength (S. aureus ATCC 6538; dose 0.250 % w/v, 60 s): 7 | log reduction at 0.3 % strength (S. aureus ATCC 6538; dose 0.300 % w/v, 60 s): 7.3
